In general, inhibition refers to the change of the read-out against control, counted positive when it falls. By IC50 is commonly meant the midpoint of a concentration-inhibition curve.

This note sets out measurements from ChEMBL document CHEMBL4715880, “Cancer Stem Cell (CSC) Inhibitors in Oncology-A Promise for a Better Therapeutic Outcome: State of the Art and Future Perspectives” (J Med Chem, 2020).

In experiment [1] the test system is PC-3. Kind of experiment: Anti-CSC activity against human PC-3 cells assessed as inhibition of sphere formation at 25 nM by sphere assay relative to control. In kind it is functional.
The subject of the next experiment is T47D. Kind of experiment: Anti-CSC activity against human T47D cells incubated for 48 hrs by MTT assay. In kind it is functional, cell-based.
The subject of experiment [2] is DU-145. The experiment can be described thus: Anti-CSC activity against human DU145 cells incubated for 1 week with intermittent feeding of medium after day 3 by alamarblue staining based soft agar method. The class given is functional, cell-based. For orientation: Resazurin is reduced to fluorescent resorufin, in cell work by metabolically active cells.
Experiment [3] deals with PC-3. Kind of experiment: Anti-CSC activity against human PC-3 cells by soft agar assay. The class given is functional, cell-based.
Experiment [4] concerns DU-145. The experiment can be described thus: Anti-CSC activity against human DU-145 cells by MTT assay. In kind it is functional, cell-based. Background: Formazan colour is commonly taken as a measure of viable cells.
Experiment [5] has as its system PC-3. Kind of experiment: Anti-CSC activity against human PC-3 cells by MTT assay. In kind it is functional, cell-based.
Experiment [6] relates to MDA-MB-231. The experiment can be described thus: Anti-CSC activity against human MDA-MB-231 cells by soft agar assay. The class given is functional, cell-based.
Experiment [7] has as its system MDA-MB-231. The experiment can be described thus: Anti-CSC activity against human MDA-MB-231 cells by MTT assay. The class given is functional, cell-based.
Experiment [8] deals with MDA-MB-231. The experiment can be described thus: Anti-CSC activity against human MDA-MB-231 cells incubated for 48 hrs by MTT assay. The class given is functional, cell-based. The following applies: MDA-MB-231, 48 h.
Experiment [9] is described as follows: Cytotoxicity against human PBMC by MTT assay. In kind it is tissue-based.
Experiment [10] has as its system PC-3. Kind of experiment: Anti-CSC activity against human PC-3 cells assessed as inhibition of sphere formation at 2.5 uM by phase-contrast microscopy relative to control. The class given is functional.
Experiment [11] concerns PC-3. The experiment can be described thus: Anti-CSC activity against human PC-3 cells incubated for 1 week by alamarblue staining based soft agar method. The class given is functional, cell-based. The following applies: PC-3, 168 h.
The test system of experiment [12] is MDA-MB-231. The experiment can be described thus: Anti-CSC activity against human MDA-MB-231 cells assessed as inhibition of sphere formation at 250 nM by phase-contrast microscopy. In kind it is functional.
The next experiment concerns Homo sapiens. The experiment can be described thus: Anti-CSC activity in patient with pSTAT3-positive tumors assessed as overall survival time at 480 mg, po administered bid with interval of 12 hrs. In kind it is functional.
The next experiment deals with MG-63. Kind of experiment: Cytotoxicity against human MG-63 cells incubated for 48 hrs by CCK-8 assay. In kind it is functional, cell-based. The following applies: MG-63, 48 h.
Experiment [13] in a line: Selectivity ratio of IC50 for human hFOB1.19 cells to IC50 for human MG-63 cells.
A short description of experiment [14]: Selectivity ratio of IC50 for […] to IC50 for human MG-63 cells.
A further experiment deals with HOS-TE85. The experiment can be described thus: Cytotoxicity against human MNNG/HOS cells incubated for 48 hrs by CCK-8 assay. The class given is functional, cell-based. Particulars: HOS-TE85, 48 h.

`N#Cc1c(NC(=O)CCl)sc2c1CCCC2`: the inhibition at 0.025 µM in the experiment with PC-3 [1] is > 50%. Further, the IC50 came out at 330 nM in the experiment on T47D and 270 nM with DU-145 [2].

For `C=C(C)[C@H](CC=C(C)C)C[C@]12C[C@H](CC=C(C)C)C(C)(C)[C@](CC=C(C)C)(C(=O)C(C(=O)c3ccc(O)c(O)c3)=C1O)C2=O`, the half-maximal inhibitory concentration (IC50) was 3460 nM with PC-3 [3]; 2870 nM with DU-145 [4]; 2860 nM with PC-3 [5]; 2130 nM in the experiment with MDA-MB-231 [6]; 2430 nM in the experiment with MDA-MB-231 [7].

As for `O=C(Cn1cc(COc2cccc3ccccc23)nn1)Nc1ccc(Cl)cc1`, the results for the IC50 (in the experiment on MDA-MB-231 [8]; in [9]; with PC-3 [11]) were 2160 nM, > 100000 nM and 2900 nM, respectively. Moreover, in the experiment on PC-3 [10], the inhibition at 2.5 µM came out at 50%.

As for `O=C(CCl)Nc1ccc2c(c1)CCC2`, the inhibition at 0.025 µM in the experiment with PC-3 [1] is > 50%. Moreover, the figures for the 50% inhibitory concentration (IC50) in the experiment on MDA-MB-231 [8] and with DU-145 [2] were 730 nM and 1160 nM, respectively.

Take `O=C(Cn1cc(COc2ccc3ccccc3c2)nn1)Nc1ccc(Cl)cc1`: the IC50 in the experiment on MDA-MB-231 [8] was 1470 nM; in experiment [9], > 100000 nM; with PC-3 [11], 12100 nM. The inhibition at 0.25 µM with MDA-MB-231 [12] is > 50%.

With `CC(=O)c1cc2c(o1)C(=O)c1ccccc1C2=O` [NAPABUCASIN], in the experiment with Homo sapiens, the Time was found to be 5.1 months.

On to `Oc1ccc(/C=C/c2cc(O)cc(O)c2)cc1` [RESVERATROL], for which the concentration for half-maximal inhibition (IC50) in the experiment on MG-63 was 28600 nM; in the experiment with HOS-TE85, 20600 nM. The “Ratio IC50” value in experiment [13] and in [14] was >40 throughout.
